From patent US9624279B2, “Method for producing insoluble aggregate of neurodegenerative-disease-related protein” (TOKYO METROPOLITAN INSTITUTE OF MEDICAL SCIENCE, priority 2011, dated 2017)

Tested on: HA-TDP expressing cells
Assay: Suppression of insoluble TDP aggregate formation by candidate compounds (Western blot with anti-409/410 antibody, densitometer)
Format: cell-based, human
Conditions: 20 μM, ppt fraction after three days, compared with DMSO control as 100%; for suppressing effect against aggregate formation: added 6 hours after introduction of insoluble fraction from the brain of patient
Description: Two transfectants of (1) SH-SY5Y cells expressing human α-synuclein (hereinafter referred to as “αS expressing cells” for transfectants and “αS” for the human α-synuclein, respectively) and (2) SH-SY5Y cells expressing HA-tagged TAR DNA binding protein (hereinafter referred to as “HA-TDP expressing cells” for the SH-SY5Y cells and an “HA-TDP” HA-tagged TAR DNA binding protein, respectively) were prepared. In brief, a construct in which a polynucleotide encoding αS or HA-TDP was inserted into pcDNA3 vector were prepared (Ueda. K et al., Proc. Natl. Acad. Sci. U.S.A. 90: 11282 (1993), Ou. S H et al., J Virol. 3584: 394 (1995)). Mixture of the construct (1 μg), X-tremeGENE 9 DNA transfection reagent (Roche Diagnostics K.K.) (3 μL) and the OptiMEM (100 μL) was added to 30% to 50% confluent of the SH-SY5Y cells and incubated over night, then used in the following step of introduction of insoluble fraction.
An amount of sample for introduction per one well of the 6-well plate was added to the cell culture medium of one well, then the cultured cells was incubated for 6 hours. After the incubation, the medium was replaced with a flesh cell culture medium (2 mL) and the cultured cells were incubated for 3 days. Then, the cultured cells were used to perform the analysis by Western blotting and immunocytochemistry. If the cultured cells were not used immediately, the cultured cells were stored at −20° C.
The precipitate obtained in the preparation of TX fraction was suspended in a cell lysis buffer containing 1% N-sodium lauroyl sarcosinate, and incubated at 37° C. for 30 min. After ultrasonication treatment using VP-5S type device (Titech Corporation), the supernatant and precipitate were separated by ultracentrifugation (290,000×g, 20 min, 4° C.), the supernatant was used as Tris buffer soluble fraction containing N-sodium lauroyl sarcosinate (hereinafter referred to as “Sar fraction”). And also, the precipitate was used as insoluble fraction (hereinafter referred to as “ppt fraction”).
TS, TX, Sar and ppt fractions were used in the Western blotting by standard method well known to those skilled in the art. In brief, each fraction was separated by electrophoresis with 13.5% SDS-polyacrylamide gel, respectively. The separated proteins were transferred to a PVDF membrane, reacted with the following primary and secondary antibodies, and detected with an ECL Plus Western Blotting Detection System (GE Healthcare Japan Corporation) and an ImageQuant™ LAS 4000 mini (GE Healthcare Japan Corporation).
The harvest of samples, preparation of insoluble fractions from the brain samples, preparation of sample for introduction including the insoluble fractions, cell culturing, preparation of transfectants, introduction of insoluble fractions into the cultured cells and Western blotting were performed in accordance with the procedures similar to those in the example 3. In this example, the candidate compounds of therapeutic agent of neurodegenerative disease were added at final concentration of 20 μM at 6 hours after introduction of insoluble fraction originated from the brain of patient into HA-TDP expressing cells. […] In three days after the introduction of insoluble fraction from the brain of patient, the ppt fraction of HA-TDP expressing cells was recovered and used in Western blotting, and the amounts of the insoluble fractions were quantified with a densitometer. […]

Row | SMILES | suppressing effect against aggregate formation | aggregate formation suppressed
1 | O=C(O[C@@H]1Cc2c(O)cc(O)cc2O[C@@H]1c1ccc(O)c(O)c1)c1cc(O)c(O)c(O)c1 [epicatechin gallate, (−)-epicatechin gallate] | had the suppressing effect | 
2 | O=C(c1cc(O)c(O)c(O)c1)c1ccc(O)c(O)c1O [exifone] | did not have a suppressing effect | 
3 | O=c1c(O)c(-c2ccc(O)c(O)c2)oc2c(O)c(O)cc(O)c12 [gossypetin] | had the suppressing effect | approximately 40%
4 | O=c1c(O)c(-c2cc(O)c(O)c(O)c2)oc2cc(O)cc(O)c12 [myricetin] | had the suppressing effect | 
